Experimental data from the supplement of paper PMC10307832.

Assays:
Test in all cases: relative viability (nuclei count vs DMSO), 5 days (fraction); higher = more cells survive
R406 + Lapatinib = compound: COc1cc(Nc2ncc(F)c(Nc3ccc4c(n3)NC(=O)C(C)(C)O4)n2)cc(OC)c1OC [R406] + CS(=O)(=O)CCNCc1ccc(-c2ccc3ncnc(Nc4ccc(OCc5cccc(F)c5)c(Cl)c4)c3c2)o1 [Lapatinib] (partner 2 µM)
How it was run: (§1)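 Relative viability is defined as nuclei in treated wells over nuclei in vehicle wells. Duplicate plates were run and medians reported. Lung cancer cell lines in 1536-well plates were dosed by pin tool one day after seeding, with one drug or with a fixed anchor-drug dose plus five library-drug doses (not always all listed) in √10 steps, and nuclei were counted after 5 days.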

Daporinad + Alpelisib = compound: O=C(/C=C/c1cccnc1)NCCCCC1CCN(C(=O)c2ccccc2)CC1 [Daporinad] + Cc1nc(NC(=O)N2CCC[C@H]2C(N)=O)sc1-c1ccnc(C(C)(C)C(F)(F)F)c1 [Alpelisib] (partner 2 µM)
How it was run: as §1

Daporinad + Tozasertib = compound: O=C(/C=C/c1cccnc1)NCCCCC1CCN(C(=O)c2ccccc2)CC1 [Daporinad] + Cc1cc(Nc2cc(N3CCN(C)CC3)nc(Sc3ccc(NC(=O)C4CC4)cc3)n2)n[nH]1 [Tozasertib] (partner 0.1 µM)
How it was run: as §1

Daporinad + Olaparib = compound: O=C(/C=C/c1cccnc1)NCCCCC1CCN(C(=O)c2ccccc2)CC1 [Daporinad] + O=C(c1cc(Cc2n[nH]c(=O)c3ccccc23)ccc1F)N1CCN(C(=O)C2CC2)CC1 [Olaparib] (partner 8 µM)
How it was run: as §1

Row | Cell Line | relative viability (R406 + Lapatinib; first compound 0.08 µM) | relative viability (R406 + Lapatinib; first compound 0.253 µM) | relative viability (R406 + Lapatinib; first compound 0.8 µM) | relative viability (R406 + Lapatinib; first compound 2.53 µM) | relative viability (R406 + Lapatinib; first compound 8 µM) | relative viability (Daporinad + Alpelisib; first compound 0.0005 µM) | relative viability (Daporinad + Alpelisib; first compound 0.001581 µM) | relative viability (Daporinad + Alpelisib; first compound 0.005 µM) | relative viability (Daporinad + Alpelisib; first compound 0.01581 µM) | relative viability (Daporinad + Tozasertib; first compound 0.0005 µM) | relative viability (Daporinad + Tozasertib; first compound 0.001581 µM) | relative viability (Daporinad + Tozasertib; first compound 0.005 µM) | relative viability (Daporinad + Tozasertib; first compound 0.01581 µM) | relative viability (Daporinad + Olaparib; first compound 0.0005 µM) | relative viability (Daporinad + Olaparib; first compound 0.001581 µM) | relative viability (Daporinad + Olaparib; first compound 0.01581 µM) | relative viability (Daporinad + Olaparib; first compound 0.005 µM)
1 | NCI-H1563 | 0.886 | 1.06 | 1.06 | 0.506 | 0.574 | 0.956 | 0.923 | 0.723 | 0.914 |  |  |  |  |  |  |  | 
2 | NCI-H1623 |  |  |  |  |  |  |  |  |  | 0.438 | 0.44 | 0.39 | 0.445 |  |  |  | 
3 | NCI-H1648 |  |  |  |  |  |  |  |  |  | 0.362 | 0.652 | 0.416 | 0.6 | 0.641 | 0.667 | 0.523 | 
4 | NCI-H1650 | 0.724 | 0.926 | 0.802 | 0.154 | 0.119 |  |  |  |  | 0.387 | 0.44 | 0.461 | 0.275 | 0.724 | 0.601 | 0.443 | 0.431
5 | NCI-H1703 | 1.52 |  | 1.03 | 0.218 | 0.17 | 0.412 | 0.379 | 0.466 | 0.312 |  |  |  |  | 0.514 | 0.388 | 0.41 | 0.576
6 | NCI-H1792 | 0.844 | 1.1 | 1.06 | 0.776 | 0.765 | 0.715 | 0.761 | 0.339 | 0.752 |  |  |  |  | 0.466 | 0.493 | 0.222 | 0.228
7 | NCI-H2342 |  |  |  |  |  |  |  |  |  | 0.53 | 0.524 | 0.51 | 0.445 | 0.409 | 0.456 | 0.367 | 0.427
8 | SW 900 |  |  |  |  |  |  |  |  |  | 0.638 | 0.473 | 0.735 | 0.346 | 0.624 |  | 0.375 | 0.572
